From publication PMC9569420 (Communications Biology, 2022)

Experiments:
Experiment in all cases: HotSpot kinase assay
Assay type in all cases: biochemical
AMPK (A1/B2/G3) = target: T1, AMPK (A1/B2/G3) (Homo sapiens, UniProt Q13131); details: 10µM; read-out: % Enzyme Activity (relative to DMSO controls)
T1 construct: purchased Reaction Biology Corporation
Experimental: (§1) Kinase activity were performed by Reaction Biology Corporation using the “HotSpot” assay platform modified from the published procedure.

AMPK (A2/B1/G3) = target: T2, AMPK (A2/B1/G3) (Homo sapiens, UniProt P54646); details: 10µM; read-out: % Enzyme Activity (relative to DMSO controls)
T2 construct: purchased Reaction Biology Corporation
Experimental: as §1

AMPK(A1/B1/G1) = target: T3, AMPK(A1/B1/G1) (Homo sapiens, UniProt Q13131); details: 10µM; read-out: % Enzyme Activity (relative to DMSO controls)
T3 construct: purchased Reaction Biology Corporation
Experimental: as §1

AMPK(A1/B1/G2) = target: T4, AMPK(A1/B1/G2) (Homo sapiens, UniProt Q13131); details: 10µM; read-out: % Enzyme Activity (relative to DMSO controls)
T4 construct: purchased Reaction Biology Corporation
Experimental: as §1

AMPK(A1/B2/G1) = target: T5, AMPK(A1/B2/G1) (Homo sapiens, UniProt Q13131); details: 10µM; read-out: % Enzyme Activity (relative to DMSO controls)
T5 construct: purchased Reaction Biology Corporation
Experimental: as §1

AMPK(A2/B1/G1) = target: T6, AMPK(A2/B1/G1) (Homo sapiens, UniProt P54646); details: 10µM; read-out: % Enzyme Activity (relative to DMSO controls)
T6 construct: purchased Reaction Biology Corporation
Experimental: as §1

AMPK(A2/B2/G1) = target: T7, AMPK(A2/B2/G1) (Homo sapiens, UniProt P54646); details: 10µM; read-out: % Enzyme Activity (relative to DMSO controls)
T7 construct: purchased Reaction Biology Corporation
Experimental: as §1

AMPK(A2/B2/G2) = target: T8, AMPK(A2/B2/G2) (Homo sapiens, UniProt P54646); details: 10µM; read-out: % Enzyme Activity (relative to DMSO controls)
T8 construct: purchased Reaction Biology Corporation
Experimental: as §1

AMPK(A2/B2/G3) = target: T9, AMPK(A2/B2/G3) (Homo sapiens, UniProt P54646); details: 10µM; read-out: % Enzyme Activity (relative to DMSO controls)
T9 construct: purchased Reaction Biology Corporation
Experimental: as §1

ARAF = target: T10, ARAF (Homo sapiens, UniProt P10398); details: 10µM; read-out: % Enzyme Activity (relative to DMSO controls)
T10 construct: purchased Reaction Biology Corporation
Experimental: as §1

CK2a = target: T11, CK2a (Homo sapiens, UniProt P68400); details: 10µM; read-out: % Enzyme Activity (relative to DMSO controls)
T11 construct: purchased Reaction Biology Corporation
Experimental: as §1

COT1/MAP3K8 = target: T12, COT1/MAP3K8 (Homo sapiens, UniProt P41279); details: 10µM; read-out: % Enzyme Activity (relative to DMSO controls)
T12 construct: purchased Reaction Biology Corporation
Experimental: as §1

DYRK4 = target: T13, DYRK4 (Homo sapiens, UniProt Q9NR20); details: 10µM; read-out: % Enzyme Activity (relative to DMSO controls)
T13 construct: purchased Reaction Biology Corporation
Experimental: as §1

EIF2AK1 = target: T14, EIF2AK1 (Homo sapiens, UniProt Q9BQI3); details: 10µM; read-out: % Enzyme Activity (relative to DMSO controls)
T14 construct: purchased Reaction Biology Corporation
Experimental: as §1

ERK1 = target: T15, ERK1 (Homo sapiens, UniProt P27361); details: 10µM; read-out: % Enzyme Activity (relative to DMSO controls)
T15 construct: purchased Reaction Biology Corporation
Experimental: as §1

HIPK1 = target: T16, HIPK1 (Homo sapiens, UniProt Q86Z02); details: 10µM; read-out: % Enzyme Activity (relative to DMSO controls)
T16 construct: purchased Reaction Biology Corporation
Experimental: as §1

HPK1/MAP4K1 = target: T17, HPK1/MAP4K1 (Homo sapiens, UniProt Q92918); details: 10µM; read-out: % Enzyme Activity (relative to DMSO controls)
T17 construct: purchased Reaction Biology Corporation
Experimental: as §1

LOK/STK10 = target: T18, LOK/STK10 (Homo sapiens, UniProt O94804); details: 10µM; read-out: % Enzyme Activity (relative to DMSO controls)
T18 construct: purchased Reaction Biology Corporation
Experimental: as §1

NEK3 = target: T19, NEK3 (Homo sapiens, UniProt P51956); details: 10µM; read-out: % Enzyme Activity (relative to DMSO controls)
T19 construct: purchased Reaction Biology Corporation
Experimental: as §1

NEK6 = target: T20, NEK6 (Homo sapiens, UniProt Q9HC98); details: 10µM; read-out: % Enzyme Activity (relative to DMSO controls)
T20 construct: purchased Reaction Biology Corporation
Experimental: as §1

NEK7 = target: T21, NEK7 (Homo sapiens, UniProt Q8TDX7); details: 10µM; read-out: % Enzyme Activity (relative to DMSO controls)
T21 construct: purchased Reaction Biology Corporation
Experimental: as §1

PDK2/PDHK2 = target: T22, PDK2/PDHK2 (Homo sapiens, UniProt Q15119); details: 10µM; read-out: % Enzyme Activity (relative to DMSO controls)
T22 construct: purchased Reaction Biology Corporation
Experimental: as §1

PDK3/PDHK3 = target: T23, PDK3/PDHK3 (Homo sapiens, UniProt Q15120); details: 10µM; read-out: % Enzyme Activity (relative to DMSO controls)
T23 construct: purchased Reaction Biology Corporation
Experimental: as §1

PDK4/PDHK4 = target: T24, PDK4/PDHK4 (Homo sapiens, UniProt Q16654); details: 10µM; read-out: % Enzyme Activity (relative to DMSO controls)
T24 construct: purchased Reaction Biology Corporation
Experimental: as §1

TGFBR2 = target: T25, TGFBR2 (Homo sapiens, UniProt P37173); details: 10µM; read-out: % Enzyme Activity (relative to DMSO controls)
T25 construct: purchased Reaction Biology Corporation
Experimental: as §1

TRPM7/CHAK1 = target: T26, TRPM7/CHAK1 (Homo sapiens, UniProt Q96QT4); details: 10µM; read-out: % Enzyme Activity (relative to DMSO controls)
T26 construct: purchased Reaction Biology Corporation
Experimental: as §1

TTBK1 = target: T27, TTBK1 (Homo sapiens, UniProt Q5TCY1); details: 10µM; read-out: % Enzyme Activity (relative to DMSO controls)
T27 construct: purchased Reaction Biology Corporation
Experimental: as §1

TTBK2 = target: T28, TTBK2 (Homo sapiens, UniProt Q6IQ55); details: 10µM; read-out: % Enzyme Activity (relative to DMSO controls)
T28 construct: purchased Reaction Biology Corporation
Experimental: as §1

VRK1 = target: T29, VRK1 (Homo sapiens, UniProt Q99986); details: 10µM; read-out: % Enzyme Activity (relative to DMSO controls)
T29 construct: purchased Reaction Biology Corporation
Experimental: as §1

VRK2 = target: T30, VRK2 (Homo sapiens, UniProt Q86Y07); details: 10µM; read-out: % Enzyme Activity (relative to DMSO controls)
T30 construct: purchased Reaction Biology Corporation
Experimental: as §1

WNK3 = target: T31, WNK3 (Homo sapiens, UniProt Q9BYP7); details: 10µM; read-out: % Enzyme Activity (relative to DMSO controls)
T31 construct: purchased Reaction Biology Corporation
Experimental: as §1

ZAK/MLTK = target: T32, ZAK/MLTK (Homo sapiens, UniProt Q9NYL2); details: 10µM; read-out: % Enzyme Activity (relative to DMSO controls)
T32 construct: purchased Reaction Biology Corporation
Experimental: as §1

ASK1/MAP3K5 = target: T33, ASK1/MAP3K5 (Homo sapiens, UniProt Q99683); details: read-out: % Enzyme Activity (relative to DMSO controls)
T33 construct: purchased Reaction Biology Corporation

CDK4/cyclin D1 = target: T34, CDK4/cyclin D1 (Homo sapiens, UniProt P11802); details: read-out: % Enzyme Activity (relative to DMSO controls)
T34 construct: purchased Reaction Biology Corporation

CDK6/cyclin D3 = target: T35, CDK6/cyclin D3 (Homo sapiens, UniProt Q00534); details: read-out: % Enzyme Activity (relative to DMSO controls)
T35 construct: purchased Reaction Biology Corporation

CSK = target: T36, CSK (Homo sapiens, UniProt P41240); details: read-out: % Enzyme Activity (relative to DMSO controls)
T36 construct: purchased Reaction Biology Corporation

ERN2/IRE2 = target: T37, ERN2/IRE2 (Homo sapiens, UniProt Q76MJ5); details: read-out: % Enzyme Activity (relative to DMSO controls)
T37 construct: purchased Reaction Biology Corporation

FGFR1 = target: T38, FGFR1 (Homo sapiens, UniProt P11362); details: read-out: % Enzyme Activity (relative to DMSO controls)
T38 construct: purchased Reaction Biology Corporation

GLK/MAP4K3 = target: T39, GLK/MAP4K3 (Homo sapiens, UniProt Q8IVH8); details: read-out: % Enzyme Activity (relative to DMSO controls)
T39 construct: purchased Reaction Biology Corporation

P38g = target: T40, P38g (Homo sapiens, UniProt P53778); details: read-out: % Enzyme Activity (relative to DMSO controls)
T40 construct: purchased Reaction Biology Corporation

TNIK = target: T41, TNIK (Homo sapiens, UniProt Q9UKE5); details: read-out: % Enzyme Activity (relative to DMSO controls)
T41 construct: purchased Reaction Biology Corporation

WNK1 = target: T42, WNK1 (Homo sapiens, UniProt Q9H4A3); details: read-out: % Enzyme Activity (relative to DMSO controls)
T42 construct: purchased Reaction Biology Corporation

T28 sequence (Q6IQ55 whole entry): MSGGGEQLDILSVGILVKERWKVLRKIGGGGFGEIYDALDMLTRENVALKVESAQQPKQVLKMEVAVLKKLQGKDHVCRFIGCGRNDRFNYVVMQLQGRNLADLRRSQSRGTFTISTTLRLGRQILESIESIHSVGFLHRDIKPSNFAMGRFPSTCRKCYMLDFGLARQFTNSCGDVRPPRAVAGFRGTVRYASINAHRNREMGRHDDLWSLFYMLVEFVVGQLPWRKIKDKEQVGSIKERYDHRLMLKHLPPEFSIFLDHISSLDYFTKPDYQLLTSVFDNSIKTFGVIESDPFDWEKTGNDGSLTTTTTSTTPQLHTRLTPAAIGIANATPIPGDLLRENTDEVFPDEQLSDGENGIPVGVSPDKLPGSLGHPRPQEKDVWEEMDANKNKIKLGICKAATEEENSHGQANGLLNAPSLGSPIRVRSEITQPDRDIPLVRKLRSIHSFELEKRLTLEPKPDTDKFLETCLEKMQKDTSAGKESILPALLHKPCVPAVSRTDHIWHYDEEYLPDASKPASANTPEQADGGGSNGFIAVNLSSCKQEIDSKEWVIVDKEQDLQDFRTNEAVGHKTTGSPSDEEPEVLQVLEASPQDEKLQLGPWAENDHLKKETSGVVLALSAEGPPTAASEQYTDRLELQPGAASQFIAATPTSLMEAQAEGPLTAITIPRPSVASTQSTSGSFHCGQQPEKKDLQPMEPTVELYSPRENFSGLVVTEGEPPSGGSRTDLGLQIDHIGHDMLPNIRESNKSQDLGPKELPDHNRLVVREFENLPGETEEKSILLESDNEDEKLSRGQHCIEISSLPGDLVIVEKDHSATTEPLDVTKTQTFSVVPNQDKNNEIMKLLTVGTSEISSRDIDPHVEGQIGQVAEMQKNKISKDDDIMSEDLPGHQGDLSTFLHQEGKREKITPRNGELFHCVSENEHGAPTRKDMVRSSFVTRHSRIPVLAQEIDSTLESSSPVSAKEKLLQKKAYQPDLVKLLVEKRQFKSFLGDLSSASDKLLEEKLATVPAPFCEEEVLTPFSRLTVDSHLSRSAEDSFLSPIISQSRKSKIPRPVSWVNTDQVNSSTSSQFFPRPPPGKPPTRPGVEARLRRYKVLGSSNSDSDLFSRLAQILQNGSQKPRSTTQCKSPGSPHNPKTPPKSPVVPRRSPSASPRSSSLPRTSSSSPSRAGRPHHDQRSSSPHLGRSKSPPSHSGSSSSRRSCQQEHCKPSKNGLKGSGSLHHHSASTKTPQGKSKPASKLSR
T13 sequence (Q9NR20 whole entry): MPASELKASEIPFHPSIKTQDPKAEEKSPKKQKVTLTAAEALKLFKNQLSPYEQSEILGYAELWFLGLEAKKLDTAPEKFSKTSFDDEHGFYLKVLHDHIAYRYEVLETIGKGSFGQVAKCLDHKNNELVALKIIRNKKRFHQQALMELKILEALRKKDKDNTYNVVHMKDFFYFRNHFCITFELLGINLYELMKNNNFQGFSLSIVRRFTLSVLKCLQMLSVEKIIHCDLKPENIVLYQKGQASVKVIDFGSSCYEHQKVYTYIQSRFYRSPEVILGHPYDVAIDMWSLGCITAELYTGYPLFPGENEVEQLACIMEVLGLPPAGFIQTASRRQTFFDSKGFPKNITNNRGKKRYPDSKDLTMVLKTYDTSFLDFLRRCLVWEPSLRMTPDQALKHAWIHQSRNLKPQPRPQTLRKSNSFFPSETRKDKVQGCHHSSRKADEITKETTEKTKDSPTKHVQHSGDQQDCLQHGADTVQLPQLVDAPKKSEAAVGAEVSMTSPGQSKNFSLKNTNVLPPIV
T35 sequence (Q00534 whole entry): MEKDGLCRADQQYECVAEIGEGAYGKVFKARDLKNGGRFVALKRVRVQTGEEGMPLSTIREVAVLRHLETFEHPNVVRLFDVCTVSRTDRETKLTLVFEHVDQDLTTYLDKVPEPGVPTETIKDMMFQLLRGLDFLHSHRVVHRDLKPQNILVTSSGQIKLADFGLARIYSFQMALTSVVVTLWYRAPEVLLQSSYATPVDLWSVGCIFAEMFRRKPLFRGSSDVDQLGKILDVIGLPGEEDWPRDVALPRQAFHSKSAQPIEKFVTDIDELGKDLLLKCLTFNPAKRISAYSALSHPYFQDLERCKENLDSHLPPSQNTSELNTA
T35 sequence (P30281 whole entry partner): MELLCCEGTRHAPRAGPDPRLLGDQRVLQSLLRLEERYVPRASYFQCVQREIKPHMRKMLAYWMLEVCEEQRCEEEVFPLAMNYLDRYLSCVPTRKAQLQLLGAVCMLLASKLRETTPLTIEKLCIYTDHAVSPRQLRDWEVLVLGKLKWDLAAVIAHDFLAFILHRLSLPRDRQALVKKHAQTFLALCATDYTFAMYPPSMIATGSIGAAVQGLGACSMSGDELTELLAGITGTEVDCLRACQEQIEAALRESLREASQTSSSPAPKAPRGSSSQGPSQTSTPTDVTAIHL
T37 sequence (Q76MJ5 35-926): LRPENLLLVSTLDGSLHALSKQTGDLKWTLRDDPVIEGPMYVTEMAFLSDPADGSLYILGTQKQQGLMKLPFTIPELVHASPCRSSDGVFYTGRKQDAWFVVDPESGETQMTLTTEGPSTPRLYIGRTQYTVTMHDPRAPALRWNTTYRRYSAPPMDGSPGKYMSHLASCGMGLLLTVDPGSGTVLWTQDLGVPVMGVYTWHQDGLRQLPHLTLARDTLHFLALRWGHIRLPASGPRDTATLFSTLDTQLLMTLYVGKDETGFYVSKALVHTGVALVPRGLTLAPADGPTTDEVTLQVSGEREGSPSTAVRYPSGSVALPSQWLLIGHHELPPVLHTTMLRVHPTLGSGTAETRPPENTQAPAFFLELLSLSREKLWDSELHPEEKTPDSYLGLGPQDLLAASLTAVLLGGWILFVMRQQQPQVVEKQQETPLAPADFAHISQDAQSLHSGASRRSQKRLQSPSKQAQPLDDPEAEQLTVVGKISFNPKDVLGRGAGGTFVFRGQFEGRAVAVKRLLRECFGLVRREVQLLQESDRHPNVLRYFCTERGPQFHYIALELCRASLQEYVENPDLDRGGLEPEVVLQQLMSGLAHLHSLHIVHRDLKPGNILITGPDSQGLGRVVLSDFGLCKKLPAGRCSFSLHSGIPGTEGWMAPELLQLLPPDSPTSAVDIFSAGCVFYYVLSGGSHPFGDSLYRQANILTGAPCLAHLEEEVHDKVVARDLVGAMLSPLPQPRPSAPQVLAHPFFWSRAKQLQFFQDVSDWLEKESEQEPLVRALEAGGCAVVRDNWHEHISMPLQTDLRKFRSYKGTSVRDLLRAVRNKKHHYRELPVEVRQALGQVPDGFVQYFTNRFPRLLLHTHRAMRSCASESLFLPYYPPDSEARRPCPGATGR
T33 sequence (Q99683 whole entry): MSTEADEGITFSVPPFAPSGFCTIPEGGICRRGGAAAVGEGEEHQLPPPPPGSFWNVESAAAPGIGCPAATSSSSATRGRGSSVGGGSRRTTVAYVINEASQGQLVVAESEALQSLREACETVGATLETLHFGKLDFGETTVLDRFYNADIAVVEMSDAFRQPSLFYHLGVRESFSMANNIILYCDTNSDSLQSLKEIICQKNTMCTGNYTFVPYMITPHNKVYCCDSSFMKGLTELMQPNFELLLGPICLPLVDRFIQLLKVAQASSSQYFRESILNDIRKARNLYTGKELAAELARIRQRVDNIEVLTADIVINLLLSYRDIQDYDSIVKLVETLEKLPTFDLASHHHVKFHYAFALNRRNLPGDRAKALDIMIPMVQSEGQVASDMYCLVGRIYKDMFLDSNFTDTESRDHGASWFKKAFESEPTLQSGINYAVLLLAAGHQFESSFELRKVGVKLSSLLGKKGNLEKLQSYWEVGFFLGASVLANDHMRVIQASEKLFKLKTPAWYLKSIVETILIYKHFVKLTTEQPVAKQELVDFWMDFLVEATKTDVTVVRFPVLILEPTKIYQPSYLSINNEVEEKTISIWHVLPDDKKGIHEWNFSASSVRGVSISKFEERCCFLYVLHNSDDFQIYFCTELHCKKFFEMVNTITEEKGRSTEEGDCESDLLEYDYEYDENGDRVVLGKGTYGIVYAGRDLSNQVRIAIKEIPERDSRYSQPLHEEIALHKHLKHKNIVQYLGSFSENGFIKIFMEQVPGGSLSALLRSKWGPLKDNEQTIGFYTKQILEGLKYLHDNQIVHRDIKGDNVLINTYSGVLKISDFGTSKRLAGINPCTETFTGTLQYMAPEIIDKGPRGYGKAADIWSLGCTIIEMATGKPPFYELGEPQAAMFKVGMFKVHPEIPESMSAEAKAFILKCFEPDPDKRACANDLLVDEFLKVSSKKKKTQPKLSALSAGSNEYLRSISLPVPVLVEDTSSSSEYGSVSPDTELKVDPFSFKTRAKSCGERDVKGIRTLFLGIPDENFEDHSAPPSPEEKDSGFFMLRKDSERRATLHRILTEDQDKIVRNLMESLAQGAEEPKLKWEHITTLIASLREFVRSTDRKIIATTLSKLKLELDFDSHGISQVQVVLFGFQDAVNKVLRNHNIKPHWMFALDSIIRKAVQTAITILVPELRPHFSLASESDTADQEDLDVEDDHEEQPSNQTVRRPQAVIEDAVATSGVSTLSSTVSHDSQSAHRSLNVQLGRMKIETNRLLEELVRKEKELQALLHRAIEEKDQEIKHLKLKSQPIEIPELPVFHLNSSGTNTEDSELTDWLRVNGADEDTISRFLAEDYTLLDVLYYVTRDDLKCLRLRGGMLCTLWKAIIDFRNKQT
T23 sequence (Q15120 whole entry): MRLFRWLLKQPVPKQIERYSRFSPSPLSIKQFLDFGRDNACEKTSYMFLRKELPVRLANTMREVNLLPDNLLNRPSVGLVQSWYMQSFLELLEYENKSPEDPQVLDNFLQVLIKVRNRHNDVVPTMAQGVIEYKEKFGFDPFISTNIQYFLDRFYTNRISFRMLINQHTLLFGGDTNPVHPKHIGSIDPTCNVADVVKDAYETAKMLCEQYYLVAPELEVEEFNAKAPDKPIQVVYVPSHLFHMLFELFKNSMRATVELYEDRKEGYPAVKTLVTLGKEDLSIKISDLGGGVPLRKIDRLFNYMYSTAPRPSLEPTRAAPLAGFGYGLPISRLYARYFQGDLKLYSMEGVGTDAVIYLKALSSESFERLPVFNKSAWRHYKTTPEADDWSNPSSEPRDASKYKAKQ

Structure (SMILES): CO[C@@H]1[C@H](N(C)C(=O)CCC(=O)NCc2cn(CCCS(=O)(=O)O)nn2)C[C@H]2O[C@]1(C)n1c3ccccc3c3c4c(c5c6ccccc6n2c5c31)C(=O)NC4 [CIMSS]
- remaining activity at 10 µM (AMPK (A1/B2/G3)): 1.13%
- remaining activity at 10 µM (AMPK (A2/B1/G3)): 0.67%
- remaining activity at 10 µM (AMPK(A1/B1/G1)): 1.14%
- remaining activity at 10 µM (AMPK(A1/B1/G2)): 1.46%
- remaining activity at 10 µM (AMPK(A1/B2/G1)): 0.73%
- remaining activity at 10 µM (AMPK(A2/B1/G1)): 0.76%
- remaining activity at 10 µM (AMPK(A2/B2/G1)): 0.34%
- remaining activity at 10 µM (AMPK(A2/B2/G2)): 0.73%
- remaining activity at 10 µM (AMPK(A2/B2/G3)): 0.63%
- remaining activity at 10 µM (ARAF): 154%
- remaining activity at 10 µM (CK2a): 71.4%
- remaining activity at 10 µM (COT1/MAP3K8): 110%
- remaining activity at 10 µM (DYRK4): 92%
- remaining activity at 10 µM (EIF2AK1): 82.5%
- remaining activity at 10 µM (ERK1): 91.8%
- remaining activity at 10 µM (HIPK1): 36.4%
- remaining activity at 10 µM (HPK1/MAP4K1): 2.66%
- remaining activity at 10 µM (LOK/STK10): 2.86%
- remaining activity at 10 µM (NEK3): 87.3%
- remaining activity at 10 µM (NEK6): 89%
- remaining activity at 10 µM (NEK7): 88.5%
- remaining activity at 10 µM (PDK2/PDHK2): 95.5%
- remaining activity at 10 µM (PDK3/PDHK3): 96.4%
- remaining activity at 10 µM (PDK4/PDHK4): 93.2%
- remaining activity at 10 µM (TGFBR2): 111%
- remaining activity at 10 µM (TRPM7/CHAK1): 91.6%
- remaining activity at 10 µM (TTBK1): 67.7%
- remaining activity at 10 µM (TTBK2): 95.1%
- remaining activity at 10 µM (VRK1): 81.6%
- remaining activity at 10 µM (VRK2): 81.8%
- remaining activity at 10 µM (WNK3): 66.4%
- remaining activity at 10 µM (ZAK/MLTK): 82.7%
- remaining activity at 10 µM (ASK1/MAP3K5): 6.25%
- remaining activity at 10 µM (CDK4/cyclin D1): 68.8%
- remaining activity at 10 µM (CDK6/cyclin D3): 56.8%
- remaining activity at 10 µM (CSK): 2.41%
- remaining activity at 10 µM (ERN2/IRE2): 6.47%
- remaining activity at 10 µM (FGFR1): 6.31%
- remaining activity at 10 µM (GLK/MAP4K3): 0.96%
- remaining activity at 10 µM (P38g): 30.3%
- remaining activity at 10 µM (TNIK): 1.22%
- remaining activity at 10 µM (WNK1): 110%
